Measured values: PubChem BioAssay AID602217 (Sanford-Burnham Center for Chemical Genomics, 2012)
Activity calls are given as the source filed them.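 Rule for the calls: active = IC50 at or below a set limit; inactive = the rest.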

Tested on: HL-1 cardiomyocytes, 2-deoxyglucose injury, ATPLite luminescence, 2 h
Experiment: protection of HL-1 cardiomyocytes from 2-deoxyglucose injury, dose response, cell-based, ATPLite luminescence (AID 602217);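 note: cells kept in glucose-free DMEM during the 2-deoxyglucose injury; potency of protection where actives preserve ATP signal against 2-deoxyglucose stress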

| SMILES | IC50 |
| --- | --- |
| CCOC(=O)C1CCN(c2cc3c(cc2NC(=O)c2ccccc2Cl)n(C)c(=O)n3C)CC1 | > 79 µM (inactive) |
| O=C(C(=O)N(Cc1ccccc1)Cc1ccccc1)c1c(-c2ccccc2)[nH]c2ccccc12 | 4.8 µM |
| COc1ccccc1CN(C(=O)CNC(=O)c1ccco1)C(C(=O)NCC1CCCO1)c1ccccc1 (configuration not stated) | 71.3 µM (inactive) |
| COc1cc(/C=N/NC(=O)NC23CC4CC(CC(C4)C2)C3)ccc1OCC(N)=O | > 79 µM (inactive) |
| COc1cc(-c2cc(C(=O)Nc3cccc(C(C)=O)c3)c3ccccc3n2)cc(OC)c1OC | 9.9 µM |
| O=C(COC(=O)c1c2c(nc3ccccc13)/C(=C/c1cccc([N+](=O)[O-])c1)CCC2)NC1CCS(=O)(=O)C1 (configuration not stated) | > 79 µM (inactive) |
| NC(=O)COc1ccc2oc(=O)cc(-c3cc4ccccc4o3)c2c1 | > 79 µM (inactive) |
| COc1ccc(-c2ccc3c(c2)S(=O)(=O)c2cccc(C(=O)N4CCN(c5c(Cl)cncc5Cl)CC4)c2C3=O)cc1OC | 13.7 µM |
| Cc1ccc(C(C(=O)NCc2ccccc2)N(Cc2ccco2)C(=O)c2snc(C(N)=O)c2N)o1 (configuration not stated) | 23.9 µM (inactive) |
| CCOc1ncccc1C(=O)Nc1cccc(-c2nc3cccnc3s2)c1 | > 79 µM (inactive) |
| O=C(CN(c1ccc2c(c1)OCCO2)S(=O)(=O)c1ccccc1)Nc1ccc2c(c1)OCO2 | > 79 µM (inactive) |
| C[C@@H]1CN([C@@H](C)CO)C(=O)c2cc(NC(=O)Nc3ccccc3)ccc2O[C@H]1CN(C)C(=O)Nc1cccc2ccccc12 | > 79 µM (inactive) |
| COc1ccc(Nc2nnc(SCc3cc(=O)n4ccsc4n3)s2)cc1 | 0.26 µM |
| CC(=O)c1cccc(-c2cnc3c(NC=O)cc(-c4ccccc4F)cn23)c1 | > 79 µM (inactive) |
| CCOc1ccc2nc(NC(=O)CN3CCC(n4nnc5cc(F)ccc54)CC3)sc2c1 | 9.48 µM |
| COc1ccc(-c2cc(-c3nnc(COC(=O)C4CC4C)o3)c3ccccc3n2)cc1OC (configuration not stated) | > 79 µM (inactive) |
| CCOC(=O)C(Cc1ccc(NC(=O)/C(=C/c2ccc(OC(C)=O)cc2)NC(C)=O)cc1)N1C(=O)c2ccccc2C1=O (configuration not stated) | 52.5 µM (inactive) |
| Brc1cc2c(cc1/C=N/Nc1nc(N3CCCC3)nc(N3CCOCC3)n1)OCO2 | > 79 µM (inactive) |
| COc1cc(-c2cc(C(=O)Nc3ccccc3N3CCOCC3)c3ccccc3n2)cc(OC)c1OC | 13.1 µM |
| Nc1c(C(=O)N/N=C/c2cccnc2)oc2nc(-c3ccco3)cc(-c3ccco3)c12 | > 79 µM (inactive) |
| COc1cccc(C(=O)Nc2c(C(N)=O)oc3ccccc23)c1 | 33.6 µM (inactive) |

| SMILES | IC50 |
| --- | --- |
| Cc1cc(C)c2c(N)c(C(=O)N/N=C/c3cccnc3)sc2n1 | > 79 µM (inactive) |
| CC(C)(C)NC(=O)COC(=O)c1c2c(nc3ccccc13)CCC2 | 23.7 µM (inactive) |
| Cc1cccc(NC(=O)c2nc[nH]c2C(=O)NCCCCNC(=O)c2[nH]cnc2C(=O)Nc2cccc(C)c2)c1 | > 79 µM (inactive) |
| O=C(CNC(=O)c1[nH]cnc1C(=O)NC(c1ccccc1)c1ccccc1)OCc1ccccc1 | > 79 µM (inactive) |
| NC(=O)c1nsc(C(=O)N(c2ccccc2F)C(C(=O)NCc2ccc(F)cc2)c2ccc(O)cc2)c1N (configuration not stated) | 9.17 µM |
| CC(C)(C)NC(=O)c1cc(NC(=O)c2cccs2)cc(NC(=O)c2cccs2)c1 | > 79 µM (inactive) |
| O=C(Nc1ccccc1)c1nc[nH]c1C(=O)NCCCCCCNC(=O)c1[nH]cnc1C(=O)Nc1ccccc1 | > 79 µM (inactive) |
| CCN1C(=O)/C(=C/c2nc3ccccc3c(=O)[nH]2)c2ccccc21 | > 79 µM (inactive) |
| O=C(CN1CCN(c2ccccn2)CC1)Nc1ccc([N+](=O)[O-])cc1C(=O)Nc1ccccc1F | 17.9 µM |
| COc1cc(-c2cc(NC(C)=O)c3ncc(-c4ccc(F)cc4)n3c2)cc(OC)c1OC | > 79 µM (inactive) |
| CCOC(=O)c1ccc(NC(=O)c2nc[nH]c2C(=O)NCCCCCNC(=O)OC(C)(C)C)cc1 | > 79 µM (inactive) |
| CC(=O)c1ccc(-c2cnc3c(NC=O)cc(-c4ccc(C(=O)NC5CC5)cc4)cn23)cc1 | 20 µM (inactive) |
| CCOc1ccc(C(C(=O)NCC2CCCO2)N(C(=O)c2snc(C(N)=O)c2N)c2ccccc2F)cc1 (configuration not stated) | 44.3 µM (inactive) |
| CCOC(=O)C1CCN(c2cc3c(cc2NC(=O)c2ccc(OC)c(OC)c2)n(C)c(=O)n3C)CC1 | > 79 µM (inactive) |
| Nc1c(C(=O)N/N=C/c2cccnc2)oc2nc(-c3ccccc3)cc(-c3ccco3)c12 | > 79 µM (inactive) |
| CCc1nc2ccc(C(=O)Nc3cc(-c4ccccc4)ccc3OC)cn2c1N(C)Cc1nccs1 | > 79 µM (inactive) |
| CCn1nc(C(=O)Nc2nc(-c3ccccn3)cs2)c2ccccc2c1=O | 13 µM |
| COc1cccc(-c2cnc3c(NC=O)cc(-c4ccc(O)c(OC)c4)cn23)c1 | 27.4 µM (inactive) |
| COc1ccc(-c2cc(-c3nnc(COC(=O)c4ccncc4)o3)c3ccccc3n2)cc1OC | 24.7 µM (inactive) |
| N#Cc1c(-c2ccco2)cc(-c2cccnc2)nc1N | 14.6 µM |
| COc1ccc(CCNc2nc(-c3cccnc3)nc3ccccc23)cc1OC | 55 µM (inactive) |

| SMILES | IC50 |
| --- | --- |
| c1ccc(-c2nc(-n3ccnc3)nc(-n3ccnc3)n2)cc1 | 38 µM (inactive) |
| C=CCn1cnc2c(c1=O)c1nc3ccccc3nc1n2/N=C/c1cc(OC)c(OC)c(OC)c1 | 5.93 µM |
| CC12C=CC(=O)CC1CCC1C2CCC2(C)C(O)C(O)CC12 (configuration not stated) | > 79 µM (inactive) |
| COc1ccc(-c2csc(NC(=O)CCCc3nc4ccccc4c(=O)[nH]3)n2)cc1OC | > 79 µM (inactive) |
| O=C(Nc1cccc(NC(=O)c2ccc([N+](=O)[O-])o2)c1)c1ccco1 | > 79 µM (inactive) |
| COCCCN(Cc1ccco1)C(=O)Cn1ncc2c([nH]c3ccccc32)c1=O | 41.4 µM (inactive) |
| COC(=O)c1ccc(N)c(N=CC2=C(O)CC(C)(C)CC2=O)c1 | > 79 µM (inactive) |
| CCOc1ccc(-n2cc(-c3ccccc3)c3c(N4CCOCC4)ncnc32)cc1 | 7.65 µM |
| CC(C)(C)OC(=O)C[C@@H]1C/C=C\C[C@@H](CC(=O)N[C@@H](CO)Cc2ccccc2)C(=O)NC[C@@H](c2ccccc2)OC1=O | > 79 µM (inactive) |
| CCCNC(=O)c1ccc(N2CCC3(CC2)CC(c2ccccc2)=NO3)c(NC(=O)c2ccco2)c1 | 10.3 µM |
| COc1cccc(Nc2nc(-c3sc(NC(=O)c4ccco4)nc3C)cs2)c1 | 26.4 µM (inactive) |
| COc1ccc(-c2cc3nc(-c4ccccc4)cc(N4CCN(C(C)=O)CC4)n3n2)cc1 | 43.7 µM (inactive) |
| COc1cc(NC(=O)c2cc3ccccc3cc2OC)ccc1NC(=O)c1cccs1 | 5.85 µM |
| O=C1OCCN1C(=O)[C@H]1[C@H](c2ccc([N+](=O)[O-])cc2)C(c2ccc(F)cc2)=NN1c1ccc(Br)cc1 | > 79 µM (inactive) |
| C=CCOC(=O)C1=C[C@H](c2cn(C(C)=O)c3ccccc23)C[C@H](OCc2ccc(CO)cc2)O1 | > 79 µM (inactive) |
| Fc1ccc(-n2cc(-c3ccccc3)c3c(N4CCOCC4)ncnc32)cc1 | 8.35 µM |
| COc1ccc(NC(=O)c2cc(-c3ccccn3)nc3ccccc23)cc1S(=O)(=O)N(C)C | 20.5 µM (inactive) |
| COc1ccc(Nc2nc(C(=O)N3CCc4cc(OC)c(OC)cc4C3)cs2)cc1 | 42 µM (inactive) |
| COc1cccc(CN(C)C(=O)C(Cc2ccccc2)NC(=O)c2ccccc2)c1OC (configuration not stated) | > 79 µM (inactive) |
| COc1ccccc1NC(=O)c1cc(-c2ccc(OC)c(OC)c2)nc2ccccc12 | 15.6 µM |
